Reference: ChEMBL document CHEMBL4004847, “New tacrine-derived AChE/BuChE inhibitors: Synthesis and biological evaluation of 5-amino-2-phenyl-4H-pyrano[2,3-b]quinoline-3-carboxylates” (Eur J Med Chem, 2017)
Values after ≈ are worked out from the molar mass of the structure shown. Active and inactive are the calls of the source. The calls are words filed in the database; no cut-off is given here.

Tests used:
Acetylcholinesterase [1] = target: T1, Acetylcholinesterase (Electrophorus electricus, UniProt O42275)
Description: Inhibition of electric eel AChE using acetylthiocholine iodide as substrate preincubated for 5 mins followed by substrate addition measured for 1 min by Ellman's method

Cholinesterase = Cholinesterase (Homo sapiens, UniProt P06276)
Description: Inhibition of human BuChE using butyrylthiocholine iodide as substrate preincubated for 5 mins followed by substrate addition measured for 1 min by Ellman's method

PC-12 [2] = test: Neuroprotective activity against H2O2-induced cell death in rat PC12 cells assessed as increase in cell viability at 100 uM preincubated for 3 hrs followed by H2O2 addition measured after 24 hrs by MTT assay; assay type: functional, cell-based
HepG2 = test: cells; conditions: Homo sapiens, HepG2, 24 h
Description: Cytotoxicity against human HepG2 cells assessed as reduction in cell viability after 24 hrs by MTT assay

Acetylcholinesterase [3] = target: T1, Acetylcholinesterase; test: Mixed-type inhibition of electric eel AChE preincubated for 5 mins followed by varying levels acetylthiocholine iodide substrate addition by Lineweaver-Burk plot analysis
PC-12 [4] = test: Neuroprotective activity against H2O2-induced cell death in rat PC12 cells assessed as increase in cell viability at 10 uM preincubated for 3 hrs followed by H2O2 addition measured after 24 hrs by MTT assay; assay type: functional, cell-based

Cholinesterase, sequence (P06276 whole entry): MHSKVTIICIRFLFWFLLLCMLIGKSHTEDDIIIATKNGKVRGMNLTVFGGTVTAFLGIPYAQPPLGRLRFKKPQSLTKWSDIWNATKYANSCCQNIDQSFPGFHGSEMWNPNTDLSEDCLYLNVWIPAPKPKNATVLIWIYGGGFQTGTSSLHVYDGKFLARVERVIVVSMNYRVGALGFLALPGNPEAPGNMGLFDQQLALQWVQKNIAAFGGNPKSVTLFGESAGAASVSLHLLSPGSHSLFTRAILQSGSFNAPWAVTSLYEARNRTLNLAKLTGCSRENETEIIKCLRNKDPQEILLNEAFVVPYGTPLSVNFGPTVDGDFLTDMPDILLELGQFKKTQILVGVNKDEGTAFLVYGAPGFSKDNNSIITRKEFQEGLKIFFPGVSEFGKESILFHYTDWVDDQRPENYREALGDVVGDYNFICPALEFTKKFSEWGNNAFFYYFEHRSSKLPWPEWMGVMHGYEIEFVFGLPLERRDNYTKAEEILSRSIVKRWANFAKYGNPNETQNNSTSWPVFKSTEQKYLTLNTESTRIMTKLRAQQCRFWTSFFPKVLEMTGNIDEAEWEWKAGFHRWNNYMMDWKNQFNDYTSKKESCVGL
T1 sequence (O42275 whole entry): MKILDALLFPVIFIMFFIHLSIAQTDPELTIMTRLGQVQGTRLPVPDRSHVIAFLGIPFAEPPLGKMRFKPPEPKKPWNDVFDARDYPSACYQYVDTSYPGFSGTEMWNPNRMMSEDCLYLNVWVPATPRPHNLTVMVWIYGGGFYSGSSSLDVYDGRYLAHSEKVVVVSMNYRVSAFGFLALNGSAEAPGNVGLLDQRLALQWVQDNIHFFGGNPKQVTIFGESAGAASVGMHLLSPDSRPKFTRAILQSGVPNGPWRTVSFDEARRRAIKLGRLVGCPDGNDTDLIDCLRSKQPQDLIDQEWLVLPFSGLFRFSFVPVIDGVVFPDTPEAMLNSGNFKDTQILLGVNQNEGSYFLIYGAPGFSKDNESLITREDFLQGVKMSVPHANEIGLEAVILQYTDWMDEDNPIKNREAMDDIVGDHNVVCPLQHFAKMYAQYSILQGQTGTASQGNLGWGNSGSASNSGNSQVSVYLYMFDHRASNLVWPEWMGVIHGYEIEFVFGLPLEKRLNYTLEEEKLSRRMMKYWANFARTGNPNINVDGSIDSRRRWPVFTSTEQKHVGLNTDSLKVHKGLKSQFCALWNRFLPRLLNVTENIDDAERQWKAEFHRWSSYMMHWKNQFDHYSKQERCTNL

CCOC(=O)C1=C(c2ccccc2)Oc2nc3c(c(N)c2C1c1ccc(Br)cc1)CCCC3 (stereo not drawn)
IC50 (Acetylcholinesterase [1]): 6220 nM | IC50 (Cholinesterase): 74.2 µM

CCOC(=O)C1=C(c2ccccc2)Oc2nc3c(c(N)c2C1c1ccccc1Br)CCCC3 (stereo not drawn)
Activity (PC-12 [2]): Active | IC50 (Acetylcholinesterase [1]): 118 nM | IC50 (Cholinesterase): 2.76 µM | IC50 (HepG2): > 100 µg/mL

CCOC(=O)C1=C(c2ccccc2)Oc2nc3c(c(N)c2C1c1ccc(OC)cc1)CCCC3 (stereo not drawn)
IC50 (Acetylcholinesterase [1]): 480 nM | IC50 (Cholinesterase): 5.76 µM

CCOC(=O)C1=C(c2ccccc2)Oc2nc3c(c(N)c2C1c1cccc(Cl)c1)CCCC3 (stereo not drawn)
Activity (PC-12 [2]): Active | IC50 (Acetylcholinesterase [1]): 228 nM | IC50 (Cholinesterase): 3.1 µM | IC50 (HepG2): 50.4 µg/mL (≈ 109 µM)

CCOC(=O)C1=C(c2ccccc2)Oc2nc3c(c(N)c2C1c1cccc(Br)c1)CCCC3 (stereo not drawn)
Ki (Acetylcholinesterase [3]): 48.5 nM | Activity (PC-12 [2]): Active | IC50 (Acetylcholinesterase [1]): 69 nM | IC50 (Cholinesterase): 1.35 µM | IC50 (HepG2): 72.8 µg/mL (≈ 144 µM)

CCOC(=O)C1=C(c2ccccc2)Oc2nc3c(c(N)c2C1c1cccc(OC)c1)CCCC3 (stereo not drawn)
IC50 (Acetylcholinesterase [1]): 510 nM | IC50 (Cholinesterase): 7.14 µM

CCOC(=O)C1=C(c2ccccc2)Oc2nc3c(c(N)c2C1c1ccc(C)cc1)CCCC3 (stereo not drawn)
IC50 (Acetylcholinesterase [1]): 4160 nM | IC50 (Cholinesterase): 54.1 µM

CCOC(=O)C1=C(c2ccccc2)Oc2nc3c(c(N)c2C1c1ccc(Cl)cc1)CCCC3 (stereo not drawn)
IC50 (Acetylcholinesterase [1]): 1100 nM | IC50 (Cholinesterase): 17.6 µM

CCOC(=O)C1=C(c2ccccc2)Oc2nc3c(c(N)c2C1c1ccc(F)cc1)CCCC3 (stereo not drawn)
IC50 (Acetylcholinesterase [1]): 404 nM | IC50 (Cholinesterase): 6.1 µM

CCOC(=O)C1=C(c2ccccc2)Oc2nc3c(c(N)c2C1c1ccc(Cl)cc1Cl)CCCC3 (stereo not drawn)
IC50 (Acetylcholinesterase [1]): 1620 nM | IC50 (Cholinesterase): 22.7 µM

CCOC(=O)C1=C(c2ccccc2)Oc2nc3c(c(N)c2C1c1ccccc1)CCCC3 (stereo not drawn)
IC50 (Acetylcholinesterase [1]): 423 nM | IC50 (Cholinesterase): 5.49 µM

CCOC(=O)C1=C(c2ccccc2)Oc2nc3c(c(N)c2C1c1ccccc1F)CCCC3 (stereo not drawn)
IC50 (Acetylcholinesterase [1]): 370 nM | IC50 (Cholinesterase): 3.63 µM

CCOC(=O)C1=C(c2ccccc2)Oc2nc3c(c(N)c2C1c1ccccc1Cl)CCCC3 (stereo not drawn)
Activity (PC-12 [4]): Active | Activity (PC-12 [2]): Active | IC50 (Acetylcholinesterase [1]): 153 nM | IC50 (Cholinesterase): 2.14 µM | IC50 (HepG2): > 100 µg/mL

CCOC(=O)C1=C(c2ccccc2)Oc2nc3c(c(N)c2C1c1ccc([N+](=O)[O-])cc1)CCCC3 (stereo not drawn)
IC50 (Acetylcholinesterase [1]): 583 nM | IC50 (Cholinesterase): 9.91 µM

CCOC(=O)C1=C(c2ccccc2)Oc2nc3c(c(N)c2C1c1cccc([N+](=O)[O-])c1)CCCC3 (stereo not drawn)
IC50 (Acetylcholinesterase [1]): 2730 nM | IC50 (Cholinesterase): 40.9 µM | IC50 (HepG2): > 100 µg/mL

CCOC(=O)C1=C(c2ccccc2)Oc2nc3c(c(N)c2C1c1cccc(F)c1)CCCC3 (stereo not drawn)
IC50 (Acetylcholinesterase [1]): 778 nM | IC50 (Cholinesterase): 11.7 µM
